Measurements from PubChem BioAssay AID292 (DTP/NCI, 2004).
Several values for one entry are separate records, joined by “and”; a condition that tells them apart may be missing. Equal entries are not always repeated. Toxic doses and inconclusive results are not listed.

System: B6C3F1 mice, ip Sarcoma M5076, median survival T/C
Assay: NCI In Vivo Anticancer Drug Screen. Data for tumor model Sarcoma M5076 (intraperitoneal) in B6C3F1 mice
Details: endpoint: median survival time, schedule: Q04DX004 (ip), higher = longer survival
Summary of the method: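 Mice carrying the transplanted tumour received compound treatment. Survival was recorded, and each value is the treated-group measurement divided by that of the vehicle-dosed control group.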

[1] = dose: 6.25 mg/kg/injection, vehicle: water
[2] = dose: 12.5 mg/kg/injection, vehicle: water
[3] = dose: 37.5 mg/kg/injection, vehicle: saline with Tween-80
[4] = dose: 75.0 mg/kg/injection, vehicle: saline with Tween-80
[5] = dose: 150.0 mg/kg/injection, vehicle: saline with Tween-80
[6] = dose: 300.0 mg/kg/injection, vehicle: saline with Tween-80
[7] = dose: 50.0 mg/kg/injection, vehicle: saline with Tween-80
[8] = dose: 100.0 mg/kg/injection, vehicle: saline with Tween-80
[9] = dose: 200.0 mg/kg/injection, vehicle: saline with Tween-80
[10] = dose: 400.0 mg/kg/injection, vehicle: saline with Tween-80
[11] = dose: 800.0 mg/kg/injection, vehicle: saline with Tween-80

Question: How did the T/C [1] turn out when `O=NNc1cnccn1` was run?
Answer: The T/C was 107 % of control.

Question: What about the T/C [2] of the same compound?
Answer: Its T/C is 118 % of control and 123 % of control.

Question: What about the T/C (dose: 50.0 mg/kg/injection, vehicle: water) of the same compound?
Answer: The T/C was 150 % of control and 155 % of control.

Question: And the T/C (dose: 100.0 mg/kg/injection, vehicle: water)?
Answer: The T/C was 196 % of control.

Question: With `O=C1CSC(c2cccs2)N1c1nncs1` (configuration not stated) as the compound, how does the T/C (dose: 50.0 mg/kg/injection, vehicle: Klucel (hydroxypropylcellulose) (HPC)) read?
Answer: The T/C was 102 % of control and 111 % of control.

Question: What about the T/C (dose: 100.0 mg/kg/injection, vehicle: Klucel (hydroxypropylcellulose) (HPC)) of the same compound?
Answer: The T/C was 98 % of control and 106 % of control.

Question: What about the T/C (dose: 200.0 mg/kg/injection, vehicle: Klucel (hydroxypropylcellulose) (HPC)) of the same compound?
Answer: Its T/C is 98 % of control and 106 % of control.

Question: And the T/C (dose: 400.0 mg/kg/injection, vehicle: Klucel (hydroxypropylcellulose) (HPC))?
Answer: The T/C was 111 % of control.

Question: And the T/C (dose: 800.0 mg/kg/injection, vehicle: Klucel (hydroxypropylcellulose) (HPC))?
Answer: The T/C was 122 % of control.

Question: Which results are given for `Cn1c2c(c3nc(N)nc(N)c3c1=O)CCc1ccccc1-2`?
Answer: T/C (dose: 25.0 mg/kg/injection, vehicle: distilled water + alcohol): 100 % of control; T/C (dose: 50.0 mg/kg/injection, vehicle: distilled water + alcohol): 104 % of control; T/C (dose: 100.0 mg/kg/injection, vehicle: distilled water + alcohol): 100 % of control

Question: For `CC[C@@]1(O)C(=O)OCc2c1cc1n(c2=O)Cc2cc3ccccc3nc2-1`, which T/C (dose: 0.37 mg/kg/injection, vehicle: saline with Tween-80) is on record?
Answer: The T/C was 107 % of control.

Question: And the T/C (dose: 0.75 mg/kg/injection, vehicle: saline with Tween-80)?
Answer: Its T/C is 109 % of control.

Question: What about the T/C (dose: 1.5 mg/kg/injection, vehicle: saline with Tween-80) of the same compound?
Answer: The T/C was 118 % of control.

Question: And the T/C (dose: 3.0 mg/kg/injection, vehicle: saline with Tween-80)?
Answer: Its T/C is 150 % of control.

Question: What about the T/C (dose: 6.0 mg/kg/injection, vehicle: saline with Tween-80) of the same compound?
Answer: Its T/C is 153 % of control and 159 % of control.

Question: For `Cc1nc2c(cnn2C)cc1CCc1ccccc1`, which T/C (dose: 18.75 mg/kg/injection, vehicle: saline with Tween-80) is on record?
Answer: The T/C was 99 % of control.

Question: What about the T/C [3] of the same compound?
Answer: Its T/C is 101 % of control.

Question: What about the T/C [4] of the same compound?
Answer: The T/C was 99 % of control.

Question: And the T/C [5]?
Answer: Its T/C is 99 % of control.

Question: And the T/C [6]?
Answer: The T/C was 90 % of control.

Question: Which results are given for `c1ccc2c(c1)oc1cc3c(cc12)nnc1cccn13`?
Answer: T/C (dose: 22.5 mg/kg/injection, vehicle: Klucel (hydroxypropylcellulose) (HPC)): 92 % of control; T/C (dose: 45.0 mg/kg/injection, vehicle: Klucel (hydroxypropylcellulose) (HPC)): 96 % of control; T/C (dose: 90.0 mg/kg/injection, vehicle: Klucel (hydroxypropylcellulose) (HPC)): 94 % of control; T/C (dose: 180.0 mg/kg/injection, vehicle: Klucel (hydroxypropylcellulose) (HPC)): 88 % of control; T/C (dose: 360.0 mg/kg/injection, vehicle: Klucel (hydroxypropylcellulose) (HPC)): 92 % of control

Question: Which T/C (dose: 10.0 mg/kg/injection, vehicle: water) does the source give for `COc1cc(NCc2ccc3nc(N)nc(N)c3c2C)cc(OC)c1OC` (tested in a mixture with another compound) here?
Answer: The T/C was 108 % of control.

Question: What about the T/C (dose: 20.0 mg/kg/injection, vehicle: water) of the same compound?
Answer: The T/C was 112 % of control.

Question: And the T/C (dose: 40.0 mg/kg/injection, vehicle: water)?
Answer: Its T/C is 117 % of control.

Question: And the T/C (dose: 80.0 mg/kg/injection, vehicle: water)?
Answer: The T/C was 115 % of control.

Question: How did the T/C [7] turn out when `C[n+]1c(-c2ccc(/C=N/NC(=O)c3ccc(C(=O)N/N=C/c4ccc(-c5cn6ccccc6[n+]5C)cc4)cc3)cc2)cn2ccccc21` was run?
Answer: Its T/C is 104 % of control.

Question: What about the T/C [8] of the same compound?
Answer: The T/C was 98 % of control.

Question: And the T/C [9]?
Answer: The T/C was 108 % of control.

Question: What about the T/C [10] of the same compound?
Answer: The T/C was 115 % of control.

Question: What about the T/C [11] of the same compound?
Answer: The T/C was 112 % of control.

Question: How did the T/C (dose: 3.75 mg/kg/injection, vehicle: saline) turn out when `CN1CCC2CC1c1ccn(C)c1C2=O` (configuration not stated) was run?
Answer: The T/C was 106 % of control.

Question: What about the T/C (dose: 7.5 mg/kg/injection, vehicle: saline) of the same compound?
Answer: The T/C was 102 % of control.

Question: What about the T/C (dose: 15.0 mg/kg/injection, vehicle: saline) of the same compound?
Answer: The T/C was 107 % of control.

Question: With `CNCCN=c1ccc2c3c1c(O)c1c(O)ccc(=O)c1c3[nH]n2CCNCCO` as the compound, how does the T/C (dose: 0.75 mg/kg/injection, vehicle: water) read?
Answer: Its T/C is 156 % of control.

Question: What about the T/C (dose: 1.5 mg/kg/injection, vehicle: water) of the same compound?
Answer: The T/C was 162 % of control.

Question: And the T/C (dose: 3.0 mg/kg/injection, vehicle: water)?
Answer: The T/C was 204 % of control.

Question: And the T/C [1]?
Answer: Its T/C is 245 % of control.

Question: What about the T/C [2] of the same compound?
Answer: The T/C was 90 % of control.

Question: For `Cc1ccc(C(=O)NC2C(=O)NC(C(C)C)C(=O)N3CCCC3C(=O)N(C)CC(=O)N(C)C(C(C)C)C(=O)OC2C)c2c1Oc1c(c(C(=O)NC3C(=O)NC(C(C)C)C(=O)N4CCCC4C(=O)N(C)CC(=O)N(C)C(C(C)C)C(=O)OC3C)c3nc(-c4ccccc4)c(=O)oc3c1C)N2` (configuration not stated), which T/C (dose: 0.25 mg/kg/injection, vehicle: water) is on record?
Answer: The T/C was 101 % of control and 113 % of control.

Question: What about the T/C (dose: 0.5 mg/kg/injection, vehicle: water) of the same compound?
Answer: Its T/C is 99 % of control.

Question: What about the T/C (dose: 1.0 mg/kg/injection, vehicle: water) of the same compound?
Answer: Its T/C is 114 % of control.

Question: With `COc1cc2c(c(OC)c1OC)-c1ccc(OC)c(=O)cc1[C@@H](NC(C)=O)CC2` as the compound, how does the T/C (dose: 0.38 mg/kg/injection, vehicle: saline) read?
Answer: Its T/C is 106 % of control.

Question: And the T/C (dose: 0.54 mg/kg/injection, vehicle: saline)?
Answer: The T/C was 101 % of control.

Question: And the T/C (dose: 0.75 mg/kg/injection, vehicle: saline)?
Answer: Its T/C is 112 % of control.

Question: What about the T/C (dose: 0.9 mg/kg/injection, vehicle: saline) of the same compound?
Answer: Its T/C is 116 % of control.

Question: And the T/C (dose: 2.5 mg/kg/injection, vehicle: saline)?
Answer: Its T/C is 123 % of control.

Question: What about the T/C (dose: 185.0 micrograms/kg/injection, vehicle: saline) of the same compound?
Answer: Its T/C is 96 % of control.

Question: And the T/C (dose: 375.0 micrograms/kg/injection, vehicle: saline)?
Answer: The T/C was 95 % of control.

Question: And the T/C (dose: 750.0 micrograms/kg/injection, vehicle: saline)?
Answer: The T/C was 100 % of control.

Question: What about the T/C (dose: 1500.0 micrograms/kg/injection, vehicle: saline) of the same compound?
Answer: The T/C was 100 % of control.

Question: And the T/C (dose: 3000.0 micrograms/kg/injection, vehicle: saline)?
Answer: The T/C was 97 % of control.

Question: Which results are given for `Cc1nn(-c2ccccn2)c2ncnc(N)c12`?
Answer: T/C [3]: 106 % of control; T/C [4]: 102 % of control; T/C [5]: 86 % of control

Question: With `CC(C)N1C(=O)N(Cl)C2C1N(Cl)C(=O)N2Cl` (configuration not stated) as the compound, how does the T/C (dose: 6.25 mg/kg/injection, vehicle: sodium bicarbonate) read?
Answer: The T/C was 102 % of control.

Question: What about the T/C (dose: 12.5 mg/kg/injection, vehicle: sodium bicarbonate) of the same compound?
Answer: Its T/C is 107 % of control.

Question: And the T/C (dose: 25.0 mg/kg/injection, vehicle: sodium bicarbonate)?
Answer: The T/C was 94 % of control.

Question: And the T/C (dose: 50.0 mg/kg/injection, vehicle: saline)?
Answer: The T/C was 91 % of control.

Question: And the T/C (dose: 50.0 mg/kg/injection, vehicle: sodium bicarbonate)?
Answer: The T/C was 114 % of control.

Question: And the T/C (dose: 100.0 mg/kg/injection, vehicle: sodium bicarbonate)?
Answer: The T/C was 109 % of control.

Question: Which results are given for `NC(=O)c1ncn(C2CC3[O][Sn]([c]4ccccc4)([c]4ccccc4)[O]CC3O2)n1` (configuration not stated)?
Answer: T/C (dose: 31.13 mg/kg/injection, vehicle: distilled water + Tween-80): 95 % of control; T/C (dose: 62.5 mg/kg/injection, vehicle: distilled water + Tween-80): 104 % of control; T/C (dose: 125.0 mg/kg/injection, vehicle: distilled water + Tween-80): 114 % of control; T/C (dose: 250.0 mg/kg/injection, vehicle: distilled water + Tween-80): 114 % of control; T/C (dose: 500.0 mg/kg/injection, vehicle: distilled water + Tween-80): 122 % of control

Question: What does the source list for `S=c1sc(-c2ccc(Cl)cc2)nn1CSc1nc2ccccc2[nH]1`?
Answer: T/C [3]: 105 % of control; T/C [4]: 98 % of control; T/C [5]: 96 % of control; T/C [6]: 95 % of control

Question: What does the source list for `Cc1cc2c(C(C)C)c(O)c(O)c(C=NCCO)c2c(O)c1-c1c(C)cc2c(C(C)C)c(O)c(O)c(C=NCCO)c2c1O`?
Answer: T/C [7]: 116 % of control; T/C (dose: 86.4 mg/kg/injection, vehicle: saline with Tween-80): 120 % of control; T/C [8]: 121 % of control; T/C [9]: 123 % of control; T/C (dose: 240.0 mg/kg/injection, vehicle: saline with Tween-80): 150 % of control; T/C [10]: 92 % of control and 210 % of control; T/C [11]: 180 % of control
